{
  "source": "paper PMC3836681",
  "about": "(Journal of molecular biology, 2012)",
  "type_in_all_cases": "binding",
  "key": {"SMb20568": {"molecular_target": "SMb20568 (Sinorhizobium meliloti, UniProt Q92TN0)", "experiment": "fluorescence thermal shift", "conditions": "10 µM protein, 1000 µM ligand"}, "RPA0668 [1]": {"molecular_target": "T1, RPA0668 (Rhodopseudomonas palustris, UniProt G3XCQ4)", "experiment": "fluorescence thermal shift", "conditions": "10 µM protein, 1000 µM ligand"}, "RPA4029": {"molecular_target": "RPA4029 (Rhodopseudomonas palustris, UniProt Q6N2M1)", "experiment": "fluorescence thermal shift", "conditions": "10 µM protein, 1000 µM ligand"}, "RPB1579": {"molecular_target": "RPB1579 (Rhodopseudomonas palustris, UniProt Q2IZS1)", "experiment": "fluorescence thermal shift", "conditions": "10 µM protein, 1000 µM ligand"}, "Bll5953": {"molecular_target": "Bll5953 (Bradyrhizobium diazoefficiens, UniProt Q89HN7)", "experiment": "fluorescence thermal shift", "conditions": "10 µM protein, 1000 µM ligand"}, "RPD1586 [2]": {"molecular_target": "T2, RPD1586 (Rhodopseudomonas palustris, UniProt Q13AR6)", "experiment": "X-ray crystal structure […] Å", "conditions": "SeMet protein, 5 mM sodium VLA in crystallization"}, "RPA0668 [3]": {"molecular_target": "T1, RPA0668", "experiment": "X-ray crystal structure […] Å", "conditions": "SeMet protein, 5 mM sodium BEZ in crystallization"}, "RPA0668 [4]": {"molecular_target": "T1, RPA0668", "experiment": "X-ray crystal structure […] Å", "conditions": "SeMet protein, 5 mM sodium PHB in crystallization"}, "RPD1586 [5]": {"molecular_target": "T2, RPD1586", "experiment": "X-ray crystal structure […] Å", "conditions": "SeMet protein"}},
  "data": [
    {"smiles": "O=C(O)c1cccc(O)c1", "note": "[3-hydroxybenzoate]", "values": [
      {"measurement": "ΔTm", "setting": "SMb20568", "result": "increased protein stability of SMb20568 with 3-hydroxybenzoate or gallic acid"}
    ]},
    {"smiles": "O=Cc1ccccc1", "note": "[benzaldehyde]", "values": [
      {"measurement": "ΔTm", "setting": "RPA0668 [1]", "result": "excellent thermal stabilization is observed for aromatic compounds with an aldehyde or carboxyl group"}
    ]},
    {"smiles": "O=C(O)c1ccc(O)c(O)c1", "note": "[DHB, 3,4-dihydroxybenzoate]", "values": [
      {"measurement": "ΔTm", "setting": "SMb20568", "result": "equivalent thermal stabilization with 4-hydroxybenzoate (PHB) and DHB"},
      {"measurement": "ΔTm", "setting": "RPA4029", "result": "the preferred ligands (DHB, VLA) are the same for each protein"},
      {"measurement": "ΔTm", "setting": "RPB1579", "result": "the preferred ligands (DHB, VLA) are the same for each protein"},
      {"measurement": "ΔTm", "setting": "Bll5953", "result": "the preferred ligands (DHB, VLA) are the same for each protein"}
    ]},
    {"smiles": "O=C(O)c1cc(O)c(O)c(O)c1", "note": "[gallic acid]", "values": [
      {"measurement": "ΔTm", "setting": "SMb20568", "result": "exhibits a greater ΔTm with gallic acid"}
    ]},
    {"smiles": "COc1cc(C(=O)O)ccc1O", "note": "[VLA, 4-hydroxy-3-methoxybenzoate]", "values": [
      {"measurement": "ΔTm", "setting": "RPA4029", "result": "the preferred ligands (DHB, VLA) are the same for each protein"},
      {"measurement": "ΔTm", "setting": "RPB1579", "result": "the preferred ligands (DHB, VLA) are the same for each protein"},
      {"measurement": "X-ray crystal structure 1.86 Å; fluorescence thermal shift", "setting": "RPD1586 [2]", "result": "RPD1586 protein from the Ic subgroup was crystallized with PHB, DHB, and VLA"},
      {"measurement": "ΔTm", "setting": "Bll5953", "result": "the preferred ligands (DHB, VLA) are the same for each protein"}
    ]},
    {"smiles": "O=C(O)c1ccccc1", "note": "[BEZ, benzoate]", "values": [
      {"measurement": "X-ray crystal structure 1.84 Å; fluorescence thermal shift", "setting": "RPA0668 [3]", "result": "RPA0668 has been determined in complex with the two most preferred ligands BEZ and PHB"}
    ]},
    {"smiles": "O=C(O)c1ccc(O)cc1", "note": "[PHB, 4-hydroxybenzoate]", "values": [
      {"measurement": "ΔTm", "setting": "SMb20568", "result": "equivalent thermal stabilization with 4-hydroxybenzoate (PHB) and DHB"},
      {"measurement": "X-ray crystal structure 1.40 Å; fluorescence thermal shift", "setting": "RPA0668 [4]", "result": "RPA0668 has been determined in complex with the two most preferred ligands BEZ and PHB"},
      {"measurement": "X-ray crystal structure 2.22 Å; fluorescence thermal shift", "setting": "RPD1586 [5]", "result": "RPD1586 protein from the Ic subgroup was crystallized with PHB, DHB, and VLA"}
    ]}
  ]
}
